IC90 data for 23 compounds are collected here from US20230141600A1, “IMIDAZOPYRAZINE DERIVATIVES” (priority 2020, published 2023).

Structures are written as SMILES. Where a name gives a salt, the structure may show the parent alone.

The test system of one assay is Acinetobacter baumannii ATCC17978. Briefly: 90% growth inhibitory concentration (IC90) determination, antimicrobial susceptibility testing. It counts as cell-based. The settings on record: ATCC17978, 90% growth inhibition, Iso-Sensitest broth, OD 600 nm over 16 h, 35±2° C., read-out: ATCC 17978 IC90. On the procedure:
Antimicrobial Susceptibility Testing:
90% Growth Inhibitory Concentration (IC90) Determination
The in vitro antimicrobial activity of the compounds was determined according to the following procedure:
The assay used a 10-points Iso-Sensitest broth medium to measure quantitatively the in vitro activity of the compounds against Acinetobacter baumannii ATCC17961 and ATCC17978.
Stock compounds in DMSO were serially twofold diluted (e.g. range from 50 to 0.097 μM final concentration) in 384 wells microtiter plates and inoculated with 49 μl the bacterial suspension in Iso-Sensitest medium to have a final cell concentration of ˜5×10^(5) CFU/ml in a final volume/well of 50 ul/well. Microtiter plates were incubated at 35±2° C.
Bacterial cell growth was determined with the measurement of optical density at λ=600 nm each minutes over a time course of 16 h. Growth inhibition was calculated during the logarithmic growth of the bacterial cells with determination of the concentration inhibiting 50% (IC50) and 90% (IC90) of the growth.
Table 1 provides the 90% growth inhibitory concentrations (IC90) in micromoles per liter of the compounds of present invention obtained against the strain Acinetobacter baumannii ATCC17978.
For `Cc1cc(Nc2nccn3c(-c4ccc(OC(F)F)cc4)cnc23)ccc1C(=O)N1CCN(C(=O)N2CC[N+](C)(C)CC2)CC1` [Example 30, [4-[[3-[4-(Difluoromethoxy)phenyl]imidazo[1,2-a]pyrazin-8-yl]amino]-2-methyl-phenyl]-[4-(4,4-dimethylpiperazin-4-ium-1-carbonyl)piperazin-1-yl]methanone Formate], the IC90 stood at 497 nM.
Same read-out and setting: to `COc1ccc(-c2cnc3c(Nc4ccc(C(=O)N5CCN(C(=O)C[N+](C)(C)C)CC5)c(Cl)c4)nccn23)cc1F` [Example 31, [2-[4-[2-Chloro-4-[[3-(3-fluoro-4-methoxyphenyl)imidazo[1,2-a]pyrazin-8-yl]amino]benzoyl]piperazin-1-yl]-2-oxoethyl]-trimethylazanium Formate] belongs 120 nM; to `COc1ccc(-c2cnc3c(Nc4ccc(C(=O)N5CCN(C(=O)C[N+](C)(C)C)CC5)c(C)c4)nccn23)cc1F` [Example 32, 2-(4-(4-((3-(3-Fluoro-4-methoxyphenyl)imidazo[1,2-a]pyrazin-8-yl)amino)-2-methylbenzoyl)piperazin-1-yl)-N,N,N-trimethyl-2-oxoethan-1-aminium Iodide], 307 nM.
`Cc1cc(Nc2nccn3c(-c4ccc(OC(F)F)cc4)cnc23)ccc1C(=O)N1CCN(C(=O)N2CCOC(C[N+](C)(C)C)C2)CC1` (centres unmarked) [Example 33, [4-[4-[4-[[3-[4-(Difluoromethoxy)phenyl]imidazo[1,2-a]pyrazin-8-yl]amino]-2-methyl-benzoyl]piperazine-1-carbonyl]morpholin-2-yl]methyl-trimethyl-ammonium Formate]: the IC90 turned out to be 996 nM.
For the compound `CN(CCN1CC[N+](C)(C)CC1)C(=O)c1ccc(Nc2nccn3c(-c4ccc(OCC#N)c(F)c4F)cnc23)cc1Cl` [Example 34, 2-Chloro-4-[[3-[4-(cyanomethoxy)-2,3-difluoro-phenyl]imidazo[1,2-a]pyrazin-8-yl]amino]-N-[2-(4,4-dimethylpiperazin-4-ium-1-yl)ethyl]-N-methyl-benzamide iodide], the IC90 came out at 246 nM.
As to `COc1ccc(-c2cnc3c(Nc4ccc(C(=O)N(C)CCOCC[N+](C)(C)C)c(C)c4)nccn23)cc1F` [Example 35, 2-(2-(4-((3-(3-Fluoro-4-methoxyphenyl)imidazo[1,2-a]pyrazin-8-yl)amino)-N,2-dimethylbenzamido)ethoxy)-N,N,N-trimethylethan-1-aminium Chloride], the IC90 turned out to be 1050 nM.
Same read-out and setting: to `Cc1cc(Nc2nccn3c(-c4ccc(OC(F)F)cc4)cnc23)ccc1C(=O)N1CCN(C(=O)NCC[N+](C)(C)C)CC1` [Example 36, 2-[[4-[4-[[3-[4-(Difluoromethoxy)phenyl]imidazo[1,2-a]pyrazin-8-yl]amino]-2-methyl-benzoyl]piperazine-1-carbonyl]amino]ethyl-trimethyl-ammonium Formate] belongs 431 nM; to `CN(CCC1CC[N+](C)(C)CC1)C(=O)c1ccc(Nc2nccn3c(-c4ccc(OCC#N)c(F)c4F)cnc23)cc1Cl` [Example 38, 2-Chloro-4-[[3-[4-(cyanomethoxy)-2,3-difluoro-phenyl]imidazo[1,2-a]pyrazin-8-yl]amino]-N-[2-(1,1-dimethylpiperidin-1-ium-4-yl)ethyl]-N-methyl-benzamide 2,2,2-trifluoroacetate], 213 nM.
For the compound `Cc1cc(Nc2nccn3c(-c4ccc(OC(F)F)cc4)cnc23)ccc1C(=O)N(C)CCC1CCN(C(=O)CC(O)C[N+](C)(C)C)CC1` (centres unmarked) [Example 39, 4-(4-(2-(4-((3-(4-(Difluoromethoxy)phenyl)imidazo[1,2-a]pyrazin-8-yl)amino)-N,2-dimethylbenzamido)ethyl)piperidin-1-yl)-2-hydroxy-N,N,N-trimethyl-4-oxobutan-1-aminium Formate], the concentration for an effect of 90% (IC90) was found to be 2380 nM.
On the same count and under the same terms, the value for `CCc1cc(Nc2nccn3c(-c4ccc(OC)c(F)c4F)cnc23)ccc1C(=O)NCCOCC[N+](CC)(CC)CC` [Example 40, 2-(2-(4-((3-(2,3-Difluoro-4-methoxyphenyl)imidazo[1,2-a]pyrazin-8-yl)amino)-2-ethylbenzamido)ethoxy)-N,N,N-triethylethan-1-aminium Formate] was 165 nM; that for `CCc1cc(Nc2nccn3c(-c4ccc(OCC#N)c(F)c4F)cnc23)ccc1C(=O)NCCOCC[N+](C)(C)C` [Example 41, 2-[2-[[4-[[3-[4-(Cyanomethoxy)-2,3-difluoro-phenyl]imidazo[1,2-a]pyrazin-8-yl]amino]-2-ethyl-benzoyl]amino]ethoxy]ethyl-trimethyl-ammonium Iodide] was 132 nM; that for `Cc1cc(Nc2nccn3c(-c4ccc(OC(F)F)cc4)cnc23)ccc1C(=O)N1CCN(C(=O)C[N+](C)(C)C)CC1` [Example 42, [2-[4-[4-[[3-[4-(Difluoromethoxy)phenyl]imidazo[1,2-a]pyrazin-8-yl]amino]-2-methyl-benzoyl]piperazin-1-yl]-2-oxo-ethyl]-trimethyl-ammonium Chloride] was 414 nM.
Still for that read-out and setting: the value for `COc1ccc(-c2cnc3c(Nc4ccc(C(=O)NCCOCC[N+](C)(C)C)c(Br)c4)nccn23)c(F)c1F` [Example 44, 2-[2-[[2-bromo-4-[[3-(2,3-difluoro-4-methoxy-phenyl)imidazo[1,2-a]pyrazin-8-yl]amino]benzoyl]amino]ethoxy]ethyl-trimethyl-ammonium 2,2,2-trifluoroacetate] was 148 nM; that for `CCC[N+](CCC)(CCC)CCOCCNC(=O)c1ccc(Nc2nccn3c(-c4ccc(OCC#N)c(F)c4F)cnc23)cc1Cl` [Example 45, 2-[2-[[2-Chloro-4-[[3-[4-(cyanomethoxy)-2,3-difluoro-phenyl]imidazo[1,2-a]pyrazin-8-yl]amino]benzoyl]amino]ethoxy]ethyl-tripropyl-ammonium Iodide] was 321 nM; that for `C[N+]1(CCOCCNC(=O)c2ccc(Nc3nccn4c(-c5ccc(OCC#N)c(F)c5F)cnc34)cc2Cl)CCCC1` [Example 46, 2-Chloro-4-[[3-[4-(cyanomethoxy)-2,3-difluoro-phenyl]imidazo[1,2-a]pyrazin-8-yl]amino]-N-[2-[2-(1-methylpyrrolidin-1-ium-1-yl)ethoxy]ethyl]benzamide Formate] was 161 nM.
The same measure, in the same setting: the value for `COc1ccc(-c2cnc3c(Nc4ccc(C(=O)NCCC[N+](C)(C)C)c(Cl)c4)nccn23)c(F)c1F` [Example 47, 3-[[2-Chloro-4-[[3-(2,3-difluoro-4-methoxy-phenyl)imidazo[1,2-a]pyrazin-8-yl]amino]benzoyl]amino]propyl-trimethyl-ammonium Formate] was 383 nM; that for `CC[N+](CC)(CC)CCCNC(=O)c1ccc(Nc2nccn3c(-c4ccc(OC)c(F)c4F)cnc23)cc1Cl` [Example 48, 3-[[2-Chloro-4-[[3-(2,3-difluoro-4-methoxy-phenyl)imidazo[1,2-a]pyrazin-8-yl]amino]benzoyl]amino]propyl-triethyl-ammonium Formate] was 566 nM; that for `CCCC[N+](CCCC)(CCCC)CCCNC(=O)c1ccc(Nc2nccn3c(-c4ccc(OC)c(F)c4F)cnc23)cc1Cl` [Example 49, Tributyl-[3-[[2-chloro-4-[[3-(2,3-difluoro-4-methoxy-phenyl)imidazo[1,2-a]pyrazin-8-yl]amino]benzoyl]amino]propyl]ammonium Formate] was 968 nM.
`CCc1cc(Nc2nccn3c(-c4ccc(OC)c(F)c4F)cnc23)ccc1C(=O)NCCOCC[N+](C)(C)CC(=O)O` [Example 50, Carboxymethyl-[2-[2-[[4-[[3-(2,3-difluoro-4-methoxy-phenyl)imidazo[1,2-a]pyrazin-8-yl]amino]-2-ethyl-benzoyl]amino]ethoxy]ethyl]-dimethyl-ammonium Formate]: the IC90 turned out to be 394 nM.
Same read-out and setting: the value for `CCc1cc(Nc2nccn3c(-c4ccc(OC)c(F)c4F)cnc23)ccc1C(=O)NCCOCC[N+](C)(C)CCO` [Example 51, 2-[2-[[4-[[3-(2,3-Difluoro-4-methoxy-phenyl)imidazo[1,2-a]pyrazin-8-yl]amino]-2-ethyl-benzoyl]amino]ethoxy]ethyl-(2-hydroxyethyl)-dimethyl-ammonium formate] was 62.8 nM.
The same measure, in the same setting: to `CCc1cc(Nc2nccn3c(-c4ccc(OC)c(F)c4F)cnc23)ccc1C(=O)NCCOCC[N+](C)(C)CC(N)=O` [Example 52, (2-Amino-2-oxo-ethyl)-[2-[2-[[4-[[3-(2,3-difluoro-4-methoxy-phenyl)imidazo[1,2-a]pyrazin-8-yl]amino]-2-ethyl-benzoyl]amino]ethoxy]ethyl]-dimethyl-ammonium Formate] belongs 38.8 nM; to `CCc1cc(Nc2nccn3c(-c4ccc(OC)c(F)c4F)cnc23)ccc1C(=O)NCCOCC[N+](C)(C)CCCC(=O)O` [Example 53, 3-Carboxypropyl-[2-[2-[[4-[[3-(2,3-difluoro-4-methoxy-phenyl)imidazo[1,2-a]pyrazin-8-yl]amino]-2-ethyl-benzoyl]amino]ethoxy]ethyl]-dimethyl-ammonium Formate], 405 nM.

Staying with this assay, now noted: ATCC17978, 16 h, read-out: ATCC 17978 IC90.
As for `COc1ccc(-c2cnc3c(Nc4ccc(C(=O)N5CC[C@@H](C(=O)NCC[N+](C)(C)C)[C@H](O)C5)c(C)c4)nccn23)cc1F` [Example 37, 2-[[(3S,4R)-1-[4-[[3-(3-fluoro-4-methoxy-phenyl)imidazo[1,2-a]pyrazin-8-yl]amino]-2-methyl-benzoyl]-3-hydroxy-piperidine-4-carbonyl]amino]ethyl-trimethyl-ammonium Formate], the IC90 was found to be 4770 nM.
